Measurements reported in patent US20260224563A1, “CRYSTALLINE FORMS OF 6-(3-((5-CHLORO-2-METHOXYPYRIDINE)-3-SULFONAMIDO)-2,6-DIFLUOROPHENYL)-N-METHYLIMIDAZO[1,5-A]PYRAZINE-1-CARBOXAMIDE AND METHODS FOR USING THE SAME” (HIBERCELL, INC., priority 2023, published 2026).
Values after ≈ are worked out from the molar mass of the structure shown. Counter-ions that a name gives are not always drawn. Like-named read-outs stand apart in the source and are kept apart here. Each block holds one molecule with its values, some of them ahead of it.

Key:
Format in all cases: physicochemical
[1] = Solubility testing in organic solvents and water (visual, room temperature)
[2] = Water activity study of the crystalline potassium salt forms (acetone/water suspension, XRPD); conditions: water/acetone
Procedure: A water activity study of the potassium salt forms was conducted in two groups: (i) Form I and Form III of the potassium salt, and (ii) Form II and Form III of the potassium salt.
Each suspension was shaken at 700 rpm in a shaker at 25° C., 35° C., 45° C., and 50° C., and the sample was analyzed by XRPD.

[3] = Dynamic vapor sorption (DVS); conditions: for DVS weight gain: 25° C.
Procedure: Moisture sorption/desorption data was collected on a Vsorp Dynamic Moisture Sorption Analyzer (ProUmid GmbH & Co. KG, Germany). The sample was placed into a tared sample chamber and automatically weighed.
• Equilibrium Condition: 0.01%/40 min • Time between weighing cycles: 10 minutes • Minimum time per climate cycle: 50 minutes • Maximum time per climate cycle: 2.0 hour • Balanced condition: 25° C. at 60% […] for 4 hours • Sample temperature: 25° C. • Adsorption: 70, 80, 90 • Desorption: 80, 70, 60, 50, 40, 30, 20, 10, 0 • Adsorption: 10, 20, 30, 40, 50, 60

[4] = Solubility in simulated biological fluid (FaSSGF and FaSSIF) at 37° C., HPLC; pH of filtrate, XRPD of filter cake; conditions: for times more soluble than the free acid (Form II): 0.5-hour mark; for pH (24 h): filtrate; for XRPD (filter cake, crystal form): up to 24 hours; for XRPD: filter cake
Procedure: (§1) Approximately between 15 mg and 24 mg of sample was suspended in 5 mL or 8 mL of FaSSGF or FaSSIF, respectively. The resulting suspension was shaken at 700 rpm with a QQMSC-100 shaker at 37° C. The suspension was sampled and filtered at certain time intervals, which was achieved by sampling 1000 μL of each suspension which was then filtered and diluted, diluting the resulting filtrate for HPLC analysis to assess solubility. The pH of the filtrate was measured, and the filter cake was analyzed by XRPD.
as §1, with “Approximately” for “Approximately between”, “mg to” for “mg and”, “5” for “5 mL”, “suspension” for “suspension which”, “was” for “was then”
Approximately 15 mg to 24 mg of sample was suspended in 5 or 8 mL of FaSSGF or FaSSIF, respectively. The resulting suspension was shaken at 700 rpm with a QQMSC-100 shaker at 37° C. The suspension was sampled and filtered in certain time interval, which was achieved by sampling 1000 μL of each suspension was filtered and diluted, diluting the resulting filtrate for HPLC analysis to assess solubility. The pH of the filtrate was measured, and the filter cake was analyzed by XRPD.

[5] = Solid-state stability (60° C./closed and 40° C./75% relative humidity open, up to seven days; HPLC purity, XRPD); conditions: for physical and chemical stability: both closed (60° C.) and open (40° C./75% RH) conditions for seven days
Procedure: HPLC method for stability and solubility testing is listed below.
• Column: Ascentis® Express C18 4.6*150 mm*2.7 μm • Mobile Phase A: 0.05% trifluoroacetic acid in water • Mobile Phase B: Methanol • Gradient (T/B %): 0/10, 10/100, 13.5/10, 15/10 • Column Temperature: 40° C. • Detector: DAD; 220 nm • Flow rate: 1.0 mL/min • Injection volume: 1 μL • Concentration: 1 mg/mL • Run time: 15 minutes • Diluent: Methanol:Water 9:1 (v/v)
The solid-state stability of Form III of the potassium salt was performed using the following protocol: • (1) A sample of Form III of the potassium salt was placed at 60° C./closed and 40° C./75% relative humidity (open) conditions for up to seven days. At the onset of the test (day 0) and day 7 of the test, the sample was dissolved in a diluent to prepare a 1 mg/mL solution for HPLC purity analysis. The solid sample was analyzed by XRPD to assess the crystal form of each solid at day 7. […] The XRPD data confirmed the physicochemical stability of Form III of the potassium salt under both closed and open conditions. […]

Compound: CNC(=O)c1ncn2cc(-c3c(F)ccc(NS(=O)(=O)c4cc(Cl)cnc4OC)c3F)ncc12 [Free acid Form I, 6-(3-((5-chloro-2-methoxypyridine)-3-sulfonamido)-2,6-difluorophenyl)-N-methylimidazo[1,5-a]pyrazine-1-carboxamide]
Solubility ([1]; Acetone, listed as Form I of the Free Acid): ~10 mg/mL (≈ 19700 µM) | Solubility ([1]; DCM, listed as Form I of the Free Acid): ~8 mg/mL (≈ 15700 µM) | Solubility ([1]; DMSO, listed as Form I of the Free Acid): >230 mg/mL | Solubility ([1]; EtOAc, listed as Form I of the Free Acid): ~2 mg/mL (≈ 3930 µM) | Solubility ([1]; EtOH, listed as Form I of the Free Acid): ~1 mg/mL (≈ 1970 µM) | Solubility ([1]; H2O (water), listed as Form I of the Free Acid): <0.1 mg/mL | Solubility ([1]; Heptane): <0.1 mg/mL | Solubility ([1]; IPA, listed as Form I of the Free Acid): ~0.4 mg/mL (≈ 786 µM) | Solubility ([1]; IPAc, listed as Form I of the Free Acid): ~0.8 mg/mL (≈ 1570 µM) | Solubility ([1]; MEK, listed as Form I of the Free Acid): ~6 mg/mL (≈ 11800 µM) | Solubility ([1]; MTBE): <0.1 mg/mL | Solubility ([1]; MeCN, listed as Form I of the Free Acid): ~5 mg/mL (≈ 9830 µM) | Solubility ([1]; MeOH, listed as Form I of the Free Acid): ~0.7 mg/mL (≈ 1380 µM) | Solubility ([1]; NBA, 24 °C, organic solvent or mixture, thermodynamic from solid, NBA, read-out: Solubility): ~0.7 mg/mL (≈ 1380 µM) | Solubility ([1]; THF, listed as Form I of the Free Acid): ~35 mg/mL (≈ 68800 µM) | Solubility ([1]; toluene, 24 °C, organic solvent or mixture, thermodynamic from solid, Toluene, read-out: Solubility): < 0.1 mg/mL

Compound: CNC(=O)c1ncn2cc(-c3c(F)ccc([N-]S(=O)(=O)c4cc(Cl)cnc4OC)c3F)ncc12.[K+] [Forms I and III of the Potassium Salt]
Crystalline form by XRPD ([2]; 0% water without molecular sieves, KF 0.189 wt. %, 25° C.): Form III | Crystalline form by XRPD ([2]; 0% water without molecular sieves, KF 0.189 wt. %, 35° C.): Form III | Crystalline form by XRPD ([2]; 0% water without molecular sieves, KF 0.189 wt. %, 45° C.): Form III | Crystalline form by XRPD ([2]; 0% water without molecular sieves, KF 0.189 wt. %, 50° C.): Form III | Crystalline form by XRPD ([2]; 10 V% water, KF 14.9 wt. %, 25° C.): Form III | Crystalline form by XRPD ([2]; 10 V% water, KF 14.9 wt. %, 35° C.): Form III | Crystalline form by XRPD ([2]; 10 V% water, KF 14.9 wt. %, 45° C.): Form III | Crystalline form by XRPD ([2]; 10 V% water, KF 14.9 wt. %, 50° C.): Form III | Crystalline form by XRPD ([2]; 25 V% water, KF 34.5 wt. %, 25° C.): Form III | Crystalline form by XRPD ([2]; 25 V% water, KF 34.5 wt. %, 35° C.): Form III | Crystalline form by XRPD ([2]; 25 V% water, KF 34.5 wt. %, 45° C.): Form III | Crystalline form by XRPD ([2]; 25 V% water, KF 34.5 wt. %, 50° C.): Form III | Crystalline form by XRPD ([2]; 50 V% water, KF 60.1 wt. %, 25° C.): Form III | Crystalline form by XRPD ([2]; 50 V% water, KF 60.1 wt. %, 35° C.): Form III | Crystalline form by XRPD ([2]; 50 V% water, KF 60.1 wt. %, 45° C.): Form III | Crystalline form by XRPD ([2]; 50 V% water, KF 60.1 wt. %, 50° C.): Form III | Crystalline form by XRPD ([2]; 75 V% water, KF 90.5 wt. %, 25° C.): Form III | Crystalline form by XRPD ([2]; 75 V% water, KF 90.5 wt. %, 35° C.): Form III | Crystalline form by XRPD ([2]; 75 V% water, KF 90.5 wt. %, 45° C.): Form III | Crystalline form by XRPD ([2]; 75 V% water, KF 90.5 wt. %, 50° C.): Form III

Compound: CNC(=O)c1ncn2cc(-c3c(F)ccc([N-]S(=O)(=O)c4cc(Cl)cnc4OC)c3F)ncc12.[K+] [Forms II and III of the Potassium Salt]
Crystalline form by XRPD ([2]; 0% water without molecular sieves, KF 0.189 wt. %, 50° C., 20 h): Form I^20 h

Compound: CNC(=O)c1ncn2cc(-c3c(F)ccc([N-]S(=O)(=O)c4cc(Cl)cnc4OC)c3F)ncc12.[Na+] [Na salt Form III]
pH (0 h) ([4]; FaSSGF): 1.60 | Concentration ([4]; FaSSGF, 37° C., 0.5 h): 45.9 µg/mL | Concentration ([4]; FaSSGF, 37° C., 2.0 h): 4.4 µg/mL | Concentration ([4]; FaSSGF, 37° C., 24 h): 4.1 µg/mL | XRPD ([4]; FaSSGF): Changed | pH (24 h) ([4]; FaSSGF): 1.68 | pH (0 h) ([4]; FaSSIF): 6.50 | Concentration ([4]; FaSSIF, 37° C., 0.25 h): 176 µg/mL | Concentration ([4]; FaSSIF, 37° C., 0.5 h): 175 µg/mL | Concentration ([4]; FaSSIF, 37° C., 0.75 h): 169 µg/mL | Concentration ([4]; FaSSIF, 37° C., 1.0 h): 170 µg/mL | Concentration ([4]; FaSSIF, 37° C., 2.0 h): 13.2 µg/mL | Concentration ([4]; FaSSIF, 37° C., 24 h): 9.9 µg/mL | XRPD ([4]; FaSSIF): Changed | pH (24 h) ([4]; FaSSIF): 6.86

Second part, led by results:

DVS weight gain ([3]; 0 to 30% relative humidity): 2.6% | DVS weight gain ([3]; 0 to 30% relative humidity, listed as Form III of the sodium salt): around 2.6% | DVS weight gain ([3]; 0 to 80% relative humidity): 3.3% | DVS weight gain ([3]; 0 to 90% relative humidity): 4.7% | DVS weight gain ([3]; 60 to 80% relative humidity, listed as Form III of the sodium salt): around 0.7% | DVS weight gain ([3]; 80 to 90% relative humidity): 1.4% | XRPD pattern after DVS testing ([3]; listed as Form III of the sodium salt): did not change | times more soluble than the free acid (Form II) ([4]; FaSSGF): about 230 times | times more soluble than the free acid (Form II) ([4]; FaSSIF): about 100 times | Purity (Area %) 220 nm ([5]; 0 day): 99.87 Area % | Purity (Area %) 220 nm ([5]; 40° C./75% RH (open), 7 days): 99.87 Area % | Purity (Area %) 220 nm ([5]; 60° C./closed, 7 days): 99.85 Area %
Compound: CNC(=O)c1ncn2cc(-c3c(F)ccc(NS(=O)(=O)c4cc(Cl)cnc4OC)c3F)ncc12 [Sodium salt Form III, 6-(3-((5-chloro-2-methoxypyridine)-3-sulfonamido)-2,6-difluorophenyl)-N-methylimidazo[1,5-a]pyrazine-1-carboxamide]
physical and chemical stability [5]: maintained physical and chemical stability

DVS weight gain ([3]; 0 to 90% relative humidity): ~0% | DVS weight gain ([3]; 0 to 90% relative humidity, listed as Form II of the free acid): almost no weight gain | Hygroscopicity (DVS) ([3]; class by weight gain to 80% relative humidity): Non-hygroscopic | XRPD pattern after DVS testing ([3]; listed as Form II of the free acid): No changes | Hygroscopicity (DVS) ([3]; relative to the class slightly hygroscopic): below slightly hygroscopic | pH (0 h) ([4]; FaSSGF, 37° C.): 1.60 | Concentration ([4]; FaSSGF, 37° C., 0.5 h): 0.2 µg/mL | Concentration ([4]; FaSSGF, 37° C., 2.0 h): 0.3 µg/mL | Concentration ([4]; FaSSGF, 37° C., 24 h): 1.5 µg/mL | pH (24 h) ([4]; FaSSGF, 37° C.): 1.57 | XRPD (filter cake, crystal form) ([4]; FaSSGF, 37° C.): Unchanged | pH (0 h) ([4]; FaSSIF, 37° C.): 6.50 | Concentration ([4]; FaSSIF, 37° C., 0.25 h): 3.0 µg/mL | Concentration ([4]; FaSSIF, 37° C., 0.5 h): 1.4 µg/mL | Concentration ([4]; FaSSIF, 37° C., 0.75 h): 1.3 µg/mL | Concentration ([4]; FaSSIF, 37° C., 1.0 h): 1.3 µg/mL | Concentration ([4]; FaSSIF, 37° C., 2.0 h): 1.6 µg/mL | Concentration ([4]; FaSSIF, 37° C., 24 h): 4 µg/mL | pH (24 h) ([4]; FaSSIF, 37° C.): 6.49 | XRPD (filter cake, crystal form) ([4]; FaSSIF, 37° C.): Unchanged | Purity (Area %) 220 nm ([5]; 0 day): 99.96 Area % | Purity (Area %) 220 nm ([5]; 40° C./75% RH (open), 7 days): 99.94 Area % | Purity (Area %) 220 nm ([5]; 60° C./closed, 7 days): 99.94 Area %
Compound: CNC(=O)c1ncn2cc(-c3c(F)ccc(NS(=O)(=O)c4cc(Cl)cnc4OC)c3F)ncc12 [Free acid Form II, 6-(3-((5-chloro-2-methoxypyridine)-3-sulfonamido)-2,6-difluorophenyl)-N-methylimidazo[1,5-a]pyrazine-1-carboxamide]
physical and chemical stability [5]: maintained physical and chemical stability
